Results as given in patent publication US20260022142A1, “MACROCYCLIC IMMUNOMODULATORS” (Bristol-Myers Squibb Company, priority 2022, published 2026).
Bridge positions count the residues as written; N and C are the ends. Square brackets hold non-standard residues; d marks the D form. Peptide text beside a SMILES is read from it. * marks the point of attachment. ξ: configuration not given here. Tyr(3,5-F2) = N[C@@H](Cc1cc(F)c(O)c(F)c1)C(=O)O; Phe(4-COOH) = N[C@@H](Cc1ccc(C(=O)O)cc1)C(=O)O; Bip = N[C@@H](Cc1ccc(-c2ccccc2)cc1)C(=O)O; NH(CH2)14COOH = O=C(O)CCCCCCCCCCCCCCN*; Phe(3-Me) = Cc1cccc(C[C@H](N)C(=O)O)c1; NH(CH2)12COOH = O=C(O)CCCCCCCCCCCCN*; Val(3-OH) = CC(C)(O)[C@H](N)C(=O)O; 4Pal = N[C@@H](Cc1ccncc1)C(=O)O; Cha = N[C@@H](CC1CCCCC1)C(=O)O; Cit = NC(=O)NCCC[C@H](N)C(=O)O; Ile(3ξ) = CCC(C)[C@H](N)C(=O)O; Thr(3ξ) = CC(O)[C@H](N)C(=O)O; Carboxymethyl = O=C(O)C*; Nle = CCCC[C@H](N)C(=O)O; Orn = NCCC[C@H](N)C(=O)O; Aun = NCCCCCCCCCCC(=O)O; Dab = NCC[C@H](N)C(=O)O; Dap = NC[C@H](N)C(=O)O; AEEA = NCCOCCOCC(=O)O

target: T1, PD-1/PD-L1 interaction (PE-labeled human PD-L1-Ig binding to Jurkat cell line over-expressing human PD-1) (Homo sapiens, UniProt Q15116); test: Jurkat-PD-1 Cell Binding High-Content Screening Assay (CBA); type: cell-based; settings: Jurkat cell line over-expressing human PD-1; PE-labeled PD-L1-Ig 20 nM final; read-out: Jurkat hPD1-PDL1 IC50
T1 construct: expressed in transfected cells; host or cells: Jurkat
Method in brief: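 Jurkat cells over-expressing human PD-1 (8×10^3 per well, DMEM/10% FCS) preincubated with compound 2 h at 37° C, then PE-labeled human PD-L1-Ig (20 nM final) added for 1 h. Cells fixed with paraformaldehyde, Hoechst-stained, and bound fluorescence quantified by high-content imaging.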

T1 sequence (Q15116 25-288): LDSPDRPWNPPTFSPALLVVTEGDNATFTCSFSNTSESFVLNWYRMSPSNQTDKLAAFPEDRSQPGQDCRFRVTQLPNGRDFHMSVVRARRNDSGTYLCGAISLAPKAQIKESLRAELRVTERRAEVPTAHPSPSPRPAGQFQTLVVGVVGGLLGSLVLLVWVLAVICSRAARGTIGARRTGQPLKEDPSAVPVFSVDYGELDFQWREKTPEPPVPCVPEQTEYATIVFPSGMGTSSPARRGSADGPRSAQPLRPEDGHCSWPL

IC50	Structure (SMILES)
147 nM	CC(C)C[C@H]1NC(=O)[C@H](CCCN)NC(=O)[C@H](C(C)C)NC(=O)[C@H](Cc2ccc(-c3ccccc3)cc2)NC(=O)[C@H](C(C)C)NC(=O)[C@H](Cc2cc(F)c(O)c(F)c2)NC(=O)[C@H](CC(=O)O)NC(=O)[C@H](Cc2ccc(OCC(=O)O)cc2)NC(=O)[C@H](CN)NC(=O)CSC[C@@H](C(=O)N[C@@H](CCN)C(=O)NCCCCCCCCCCC(=O)O)NC(=O)[C@H](CCCCN)NC(=O)[C@H](C(C)C)NC(=O)[C@H](CC2CCCCC2)NC(=O)[C@H](CCN)NC1=O [Compound 2032] ({CH2CO}-[Dap]Y(Carboxymethyl)D[Tyr(3,5-F2)]V[Bip]V[Orn][dL][Dab][Cha]VKC[Dab][Aun]-OH; thioether N-14)
21 nM	CC(C)C[C@H]1NC(=O)[C@H](CCCN)NC(=O)[C@H](C(C)C)NC(=O)[C@H](Cc2ccc(-c3ccccc3)cc2)NC(=O)[C@H](C(C)C)NC(=O)[C@H](Cc2c[nH]c3ccccc23)NC(=O)[C@H](CC(=O)O)NC(=O)[C@H](Cc2ccc(OCC(=O)O)cc2)NC(=O)[C@H](CN)NC(=O)CSC[C@@H](C(=O)N[C@@H](C)C(=O)N[C@@H](CCCN)C(=O)NCC(=O)NCCCCCCCCCCC(=O)O)NC(=O)[C@H]([C@@H](C)O)NC(=O)[C@H](C(C)C)NC(=O)[C@H](CC2CCCCC2)NC(=O)[C@H](Cc2c[nH]cn2)NC1=O [Compound 1086] ({CH2CO}-[Dap]Y(Carboxymethyl)DWV[Bip]V[Orn][dL]H[Cha]VTCA[Orn]G[Aun]-OH; thioether N-14)
6.4 nM	Cc1cccc(C[C@@H]2NC(=O)[C@H](CC(=O)O)NC(=O)[C@H](Cc3ccc(OCC(=O)O)cc3)NC(=O)[C@H](CN)NC(=O)CSC[C@@H](C(=O)N[C@@H](CCCCN)C(=O)NCCCCCCCCCCC(=O)O)NC(=O)[C@H](CCCN)NC(=O)[C@H](C(C)C)NC(=O)[C@H](CC3CCCCC3)NC(=O)[C@H](CCN)NC(=O)[C@@H](CC(C)C)NC(=O)[C@H](CCCN)NC(=O)[C@H](C(C)C)NC(=O)[C@H](Cc3ccc(-c4ccccc4)cc3)NC(=O)[C@H](C(C)C)NC2=O)c1 [Compound 2535] ({CH2CO}-[Dap]Y(Carboxymethyl)D[Phe(3-Me)]V[Bip]V[Orn][dL][Dab][Cha]V[Orn]CK[Aun]-OH; thioether N-14)
2.6 nM	Cc1cccc(C[C@@H]2NC(=O)[C@H](CC(=O)O)NC(=O)[C@H](Cc3ccc(OCC(=O)O)cc3)NC(=O)[C@H](CCN)NC(=O)CSC[C@@H](C(=O)N[C@@H](CCN)C(=O)NCCOCCOCC(=O)NCCOCCOCC(=O)NCCOCCOCC(=O)NCCCCCCCCCCC(=O)O)NC(=O)[C@H](Cc3cnc[nH]3)NC(=O)[C@H](C(C)(C)O)NC(=O)[C@H](CC3CCCCC3)NC(=O)[C@H](CCN)NC(=O)[C@@H](CC(C)C)NC(=O)[C@H](CCCN)NC(=O)[C@H](Cc3ccc(C(=O)O)cc3)NC(=O)[C@H](Cc3ccc(-c4ccccc4)cc3)NC(=O)[C@H](Cc3ccc(C(=O)O)cc3)NC2=O)c1 [Compound 3772] ({CH2CO}-[Dab]Y(Carboxymethyl)D[Phe(3-Me)][Phe(4-COOH)][Bip][Phe(4-COOH)][Orn][dL][Dab][Cha][Val(3-OH)]HC[Dab][AEEA][AEEA][AEEA][Aun]-OH; thioether N-14)
45 nM	Cc1cccc(C[C@@H]2NC(=O)[C@H](CC(=O)O)NC(=O)[C@H](Cc3ccc(OCC(=O)O)cc3)NC(=O)[C@H](Cc3ccc(OCC(=O)O)cc3)NC(=O)CSC[C@@H](C(=O)N[C@@H](CCN)C(=O)NCCCCCCCCCCC(=O)O)NC(=O)[C@H]([C@@H](C)O)NC(=O)[C@H](C(C)C)NC(=O)[C@H](CC(C)C)NC(=O)[C@H](CCN)NC(=O)[C@@H](CC(C)C)NC(=O)[C@H](CCCN)NC(=O)[C@H](Cc3ccc(O)cc3)NC(=O)[C@H](Cc3ccc(-c4ccccc4)cc3)NC(=O)[C@H](CC(C)C)NC2=O)c1 [Compound 2747] ({CH2CO}-Y(Carboxymethyl)Y(Carboxymethyl)D[Phe(3-Me)]L[Bip]Y[Orn][dL][Dab]LVTC[Dab][Aun]-OH; thioether N-14)
14.1 nM	CC(C)C[C@H]1NC(=O)[C@H](CCCN)NC(=O)[C@H](CCC(=O)O)NC(=O)[C@H](Cc2ccc(-c3ccccc3)cc2)NC(=O)[C@H](C(C)C)NC(=O)[C@H](Cc2c[nH]c3ccccc23)NC(=O)[C@H](CC(=O)O)NC(=O)[C@H](Cc2ccc(OCC(=O)O)cc2)NC(=O)[C@H](Cc2ccc(OCC(=O)O)cc2)NC(=O)CSC[C@@H](C(=O)NCCOCCOCC(=O)N[C@@H](CCN)C(=O)NCCCCCCCCCCC(=O)O)NC(=O)[C@H](CCCNC(=N)N)NC(=O)[C@H](C(C)C)NC(=O)[C@H](CC2CCCCC2)NC(=O)[C@H](CCN)NC1=O [Compound 2671] ({CH2CO}-Y(Carboxymethyl)Y(Carboxymethyl)DWV[Bip]E[Orn][dL][Dab][Cha]VRC[AEEA][Dab][Aun]-OH; thioether N-14)
65.2 nM	CC(C)C[C@H]1NC(=O)[C@H](CCCN)NC(=O)[C@H](CCCNC(N)=O)NC(=O)[C@H](Cc2ccc(-c3ccccc3)cc2)NC(=O)[C@H](C(C)C)NC(=O)[C@H](Cc2c[nH]c3ccccc23)NC(=O)[C@H](CC(=O)O)NC(=O)[C@H](Cc2ccc(OCC(=O)O)cc2)NC(=O)[C@H](C(C)O)NC(=O)CSC[C@@H](C(=O)N[C@H](CCC(N)=O)C(=O)NCCCCCCCCCCC(=O)O)NC(=O)[C@H](C(C)O)NC(=O)[C@H](C(C)C)NC(=O)[C@H](CC2CCCCC2)NC(=O)[C@H](CCN)NC1=O (stereo partly drawn) [Compound 3446] ({CH2CO}-[Thr(3ξ)]Y(Carboxymethyl)DWV[Bip][Cit][Orn][dL][Dab][Cha]V[Thr(3ξ)]C[dQ][Aun]-OH; thioether N-14)
130 nM	CC(C)C[C@H]1NC(=O)[C@H](CCCN)NC(=O)[C@H](C(C)C)NC(=O)[C@H](Cc2ccc(-c3ccccc3)cc2)NC(=O)[C@H](C(C)C)NC(=O)[C@H](Cc2c[nH]c3ccccc23)NC(=O)[C@H](CC(=O)O)NC(=O)[C@H](Cc2ccc(C(=O)O)cc2)NC(=O)[C@H](C(C)O)NC(=O)CSC[C@@H](C(=O)N[C@@H](C)C(=O)N[C@@H](CCCCN)C(=O)NCCCCCCCCCCCCCCC(=O)O)NC(=O)[C@H](C(C)O)NC(=O)[C@H](C(C)C)NC(=O)[C@H](CC2CCCCC2)NC(=O)[C@H](CCN)NC1=O (stereo partly drawn) [Compound 3021] ({CH2CO}-[Thr(3ξ)][Phe(4-COOH)]DWV[Bip]V[Orn][dL][Dab][Cha]V[Thr(3ξ)]CAK-{NH(CH2)14COOH}; thioether N-14)
30.4 nM	CCC(C)[C@@H]1NC(=O)[C@H](CC2CCCCC2)NC(=O)[C@H](CCN)NC(=O)[C@@H](CC(C)C)NC(=O)[C@H](CCCN)NC(=O)[C@H](C(C)CC)NC(=O)[C@H](Cc2ccc(-c3ccccc3)cc2)NC(=O)[C@H](C(C)CC)NC(=O)[C@H](Cc2c[nH]c3ccccc23)NC(=O)[C@H](CC(=O)O)NC(=O)[C@H](Cc2ccc(OCC(=O)O)cc2)NC(=O)[C@H](C(C)O)NC(=O)CSC[C@@H](C(=O)N[C@H](CC(N)=O)C(=O)NCCOCCOCC(=O)N2CCC[C@@H]2C(=O)NCCCCCCCCCCC(=O)O)NC(=O)[C@H](CO)NC1=O (stereo partly drawn) [Compound 3118] ({CH2CO}-[Thr(3ξ)]Y(Carboxymethyl)DW[Ile(3ξ)][Bip][Ile(3ξ)][Orn][dL][Dab][Cha][Ile(3ξ)]SC[dN][AEEA][dP][Aun]-OH; thioether N-14)
10.4 nM	Cc1cccc(C[C@@H]2NC(=O)[C@H](CC(=O)O)NC(=O)[C@H](Cc3ccc(OCC(=O)O)cc3)NC(=O)[C@H](CN)NC(=O)CSC[C@@H](C(=O)N[C@@H](CCN)C(=O)NCCCCCCCCCCC(=O)O)NC(=O)[C@H]([C@@H](C)O)NC(=O)[C@H](C(C)C)NC(=O)[C@H](CC3CCCCC3)NC(=O)[C@H](CCN)NC(=O)[C@@H](CC(C)C)NC(=O)[C@H](CCCN)NC(=O)[C@H](Cc3ccc(O)cc3)NC(=O)[C@H](Cc3ccc(-c4ccccc4)cc3)NC(=O)[C@H](Cc3ccc(O)cc3)NC2=O)c1 [Compound 2711] ({CH2CO}-[Dap]Y(Carboxymethyl)D[Phe(3-Me)]Y[Bip]Y[Orn][dL][Dab][Cha]VTC[Dab][Aun]-OH; thioether N-14)
19.5 nM	CCCC[C@@H]1NC(=O)CSC[C@@H](C(=O)N[C@@H](CCN)C(=O)NCCOCCOCC(=O)NCCOCCOCC(=O)NCCCCCCCCCCCCC(=O)O)NC(=O)[C@H](CC(=O)O)NC(=O)[C@H](C(C)(C)O)NC(=O)[C@H](CC2CCCCC2)NC(=O)[C@H](CCN)NC(=O)[C@@H](CC(C)C)NC(=O)[C@H](CCCN)NC(=O)[C@H](Cc2ccc(C(=O)O)cc2)NC(=O)[C@H](Cc2ccc(-c3ccccc3)cc2)NC(=O)[C@H](Cc2ccc(C(=O)O)cc2)NC(=O)[C@H](Cc2cccc(C)c2)NC(=O)[C@H](CC(=O)O)NC(=O)[C@H](Cc2ccc(OCC(=O)O)cc2)NC1=O [Compound 2893] ({CH2CO}-[Nle]Y(Carboxymethyl)D[Phe(3-Me)][Phe(4-COOH)][Bip][Phe(4-COOH)][Orn][dL][Dab][Cha][Val(3-OH)]DC[Dab][AEEA][AEEA]-{NH(CH2)12COOH}; thioether N-14)
7.3 nM	CC(C)C[C@H]1NC(=O)[C@H](CCCN)NC(=O)[C@H](C(C)C)NC(=O)[C@H](Cc2ccc(-c3ccccc3)cc2)NC(=O)[C@H](C(C)C)NC(=O)[C@H](Cc2c[nH]c3ccccc23)NC(=O)[C@H](CC(=O)O)NC(=O)[C@H](Cc2ccc(C(=O)O)cc2)NC(=O)[C@H](Cc2ccncc2)NC(=O)CSC[C@@H](C(=O)NCC(=O)NCCOCCOCC(=O)N[C@@H](CCCN)C(=O)NCCCCCCCCCCC(=O)O)NC(=O)[C@H](CN)NC(=O)[C@H](C(C)C)NC(=O)[C@H](CC2CCCCC2)NC(=O)[C@H](CCN)NC1=O [Compound 3234] ({CH2CO}-[4Pal][Phe(4-COOH)]DWV[Bip]V[Orn][dL][Dab][Cha]V[Dap]CG[AEEA][Orn][Aun]-OH; thioether N-14)
